Molecules are shown by their SMILES.

Assay [1] relates to L6-myotubes. Description: Glucose uptake in differentiated L6-myotubes (Biological Example 2). Format: cell-based. As to conditions: read-out: Biological example 2 (GU). An outline of the steps:
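Uptake was quantified as radioactivity in 0.2 M NaOH lysates after a 10 min pulse of 50 nM ^3H-2-deoxyglucose. The pulse followed two agonist exposures at 1×10^−5 M final (isoprenaline or test compound): 1 h 40 min, then 20 min in glucose-free medium after washing. L6 myotubes had been starved overnight in medium with 0.5% fatty-acid-free BSA.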

The test system of assay [2] is L6-myotubes. Description: Measurement of intracellular cAMP levels in differentiated L6-myotubes (Biological Example 3). As to conditions: 0.25 h. The class given is cell-based. An outline of the steps: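 Intracellular cAMP quantified by AlphaScreen after ethanol extraction and lysis of L6 myotubes. Cells were serum-starved overnight, then exposed for 15 min to compound (final 1×10^−5 M) or isoprenaline in IBMX-containing (1 mM) HBSS buffer, pH 7.4.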

[3] abbreviates: glucose uptake in differentiated L6-myotubes, compound at 10 μM, activity relative to isoproterenol at 10 μM.
The mark [4] stands for this setting: intracellular cAMP in differentiated L6-myotubes, compound at 10 μM, activity relative to isoproterenol at 10 μM.
Setting [5] is: glucose uptake, compound at 10 μM relative to isoproterenol at 10 μM.
Setting [6] is: intracellular cAMP, compound at 10 μM relative to isoproterenol at 10 μM.

Consider `CC(C)(NC[C@H](O)c1cccc(F)c1)[C@H]1CC[C@@H](C(=O)O)CC1` [Compound 369], for which the Emax at 10 µM in assay [1] (setting [3]) is 50 to 75%; in assay [2] (setting [4]), less than 25%.

`CC1(C)CCC[C@@H]([C@H](O)c2cccc(F)c2)N1` [Compound 190]: the figures for the Emax at 10 µM in assay [1] (setting [5]) and in assay [2] (setting [6]) were more than 75% and less than 25%, respectively.

Take `CO[C@H]1CC[C@H](CCNC[C@H](O)c2cccc(F)c2)CC1` [Compound 224, (R)-1-(m-fluorophenyl)-2-{2-[(1r,4R)-4-methoxycyclohexyl]ethylamino}-1-ethanol]: the Emax at 10 µM in assay [1] (setting [3]) is 25 to 50%; in assay [2] (setting [4]), less than 25%.

As to `CC12CCC([C@H](O)c3cccc(Cl)c3)(CC1)N2` [Compound 197, (R)-(m-chlorophenyl)(4-methyl-7-azabicyclo[[2.2.1]]hept-1-yl)methanol], the Emax at 10 µM in assay [1] (setting [5]) was more than 75%; in assay [2] (setting [6]), less than 25%.

As for `CCC[C@@H]1CCC[C@H]([C@@H](O)c2ccccc2F)N1` [Compound 107, (S)-[(2R,6R)-6-propyl-2-piperidyl](o-fluorophenyl)methanol], the Emax at 10 µM in assay [1] (setting [5]) was 25 to 50%; in assay [2] (setting [6]), less than 25%.

`C[C@H]1CC[C@@H]([C@H](O)c2ccccc2)N1` (racemic) [Compound 38, Racemic mixture of (R)-[(2S,5S)-5-methyl-2-pyrrolidinyl]phenylmeth anol and (S)-[(2R,5R)-5-methyl-2-pyrrolidinyl]] phenylmethanol]: the results for the Emax at 10 µM in assay [1] (setting [5]) and in assay [2] (setting [6]) were 25 to 50% and less than 25%, respectively.

Regarding `CC(C)(C[C@H]1CC[C@@H](NS(=O)(=O)C(F)(F)F)CC1)NC[C@H](O)c1cncc(F)c1` [Compound 522], the figures for the Emax at 10 µM in assay [1] (setting [3]) and in assay [2] (setting [4]) were more than 75% and less than 25%, respectively.

As to `CO[C@H]1CC[C@H](C[C@@H]2CC[C@H]([C@H](O)c3cccc(F)c3)N2)CC1` [Compound 326, (R)-[(2R,5S)-5-{[(1r,4S)-4-methoxycyclohexyl]methyl}-2-pyrrolidinyl] (m-fluorophenyl)methanol], the Emax at 10 µM in assay [1] (setting [3]) is more than 75%; in assay [2] (setting [4]) it was less than 25%.

In the case of `COC(=O)[C@H]1CC[C@H](C(C)(C)NC[C@H](O)c2cccc(F)c2)CC1` [Compound 367, (1R,4r)-8-[(R)-2-(m-fluorophenyl)-2-hydroxyethylamino]-7-methoxy-p-menthan-7-one], the Emax at 10 µM was more than 75% in assay [1] (setting [3]) and 25 to 50% in assay [2] (setting [4]).

Regarding `CCC[C@@H]1CC[C@@H]([C@H](O)c2cccc(F)c2)N1` [Compound 132, (R)-[(2S,5R)-5-propyl-2-pyrrolidinyl](m-fluorophenyl)methanol], the results for the Emax at 10 µM in assay [1] (setting [5]) and in assay [2] (setting [6]) were 25 to 50% and less than 25%, respectively.

As for `O[C@@H](CNCCC[C@H]1CC[C@@H](OCc2ccccc2)CC1)c1cccc(F)c1` [Compound 277, (R)-1-(m-fluorophenyl)-2-{3-[(1s,4R)-4-(benzyloxy)cyclohexyl]propylamino}-1-ethanol], the Emax at 10 µM in assay [1] (setting [3]) is 25 to 50%; in assay [2] (setting [4]) it was less than 25%.

Consider `CC(C)(C)NC[C@H](O)c1ccc(Cl)cn1` [Compound 147, (S)-2-(tert-butylamino)-1-(5-chloro-2-pyridyl)-1-ethanol], for which the Emax at 10 µM in assay [1] (setting [5]) was 25 to 50%; in assay [2] (setting [6]), less than 25%.

Regarding `O[C@@H](c1cccc(F)c1)C12CCC(CCc3ccc(OC(F)(F)F)cc3)(CC1)N2` [Compound 544, (S)-(m-fluorophenyl){4-[2-(p-trifluoromethoxyphenyl)ethyl]-7-azabicyclo[[2.2.1]]hept-1-yl}methanol], the Emax at 10 µM in assay [1] (setting [3]) and in assay [2] (setting [4]) was less than 25% in each case.

For the compound `CO[C@H]1CC[C@H](C[C@@H]2CC[C@H]([C@@H](O)c3cccc(F)c3)N2)CC1` [Compound 325, (S)-[(2R,5S)-5-{[(1r,4S)-4-methoxycyclohexyl]methyl}-2-pyrrolidinyl](m-fluorophenyl)methanol], the Emax at 10 µM is more than 75% in assay [1] (setting [3]) and less than 25% in assay [2] (setting [4]).

For the compound `CO[C@H]1CC[C@H](CNC[C@H](O)c2cncc(F)c2)CC1` [Compound 229, (R)-1-(5-fluoro-3-pyridyl)-2-({[(1r,4R)-4-methoxycyclohexyl]methyl}amino)-1-ethanol], the Emax at 10 µM in assay [1] (setting [3]) is 50 to 75%; in assay [2] (setting [4]), less than 25%.

For the compound `CC(C)(C)CNC[C@H](O)c1cccc(F)c1` [Compound 117, (R)-1-(m-fluorophenyl)-2-(neopentylamino)-1-ethanol], the Emax at 10 µM in assay [1] (setting [5]) was 25 to 50%; in assay [2] (setting [6]) it was less than 25%.

As for `CC12CC(C1)[C@H]([C@H](O)c1cccc(F)c1)N2` [Compound 186], the Emax at 10 µM was more than 75% in assay [1] (setting [5]) and 50 to 75% in assay [2] (setting [6]).

For the compound `O[C@H](c1cncc(F)c1)[C@H]1CC[C@H](Cc2ccc(Cl)cc2)N1` [Compound 406, (R)-{(2R,5R)-5-[(p-chlorophenyl)methyl]-2-pyrrolidinyl}(5-fluoro-3-pyridyl)methanol], the Emax at 10 µM in assay [1] (setting [3]) is more than 75%; in assay [2] (setting [4]), less than 25%.

For `CC(C)(C[C@H]1CC[C@H](C(=O)O)CC1)NC[C@H](O)c1cncc(F)c1` [Compound 356, (1R,4r)-4-{2-[(R)-2-(5-fluoro-3-pyridyl)-2-hydroxyethylamino]-2-methylpropyl} cyclohexanecarboxylic acid], the Emax at 10 µM in assay [1] (setting [3]) and in assay [2] (setting [4]) was less than 25% each time.

For `O[C@H](c1cncc(F)c1)C12CCC(CCCc3ccccc3)(CC1)N2` [Compound 532, (R)-(5-fluoro-3-pyridyl){4-(3-phenylpropyl)-7-azabicyclo[[2.2.1]]hept-1-yl}methanol], the results for the Emax at 10 µM in assay [1] (setting [3]) and in assay [2] (setting [4]) were 50 to 75% and 25 to 50%, respectively.

As to `CCCC(C)NC(C)C(O)c1ccc(O)cc1` (stereo not shown) [Compound 13, 1-(p-hydroxyphenyl)-2-(1-methylbutylamino)-1-propanol], the values for the Emax at 10 µM in assay [1] (setting [5]) and in assay [2] (setting [6]) were 50 to 75% and less than 25%, respectively.

In the case of `COc1ccc(C[C@H]2CC[C@H]([C@H](O)c3cncc(F)c3)N2)cc1` [Compound 379, (R)-{(2R,5R)-5-[(p-methoxyphenyl)methyl]-2-pyrrolidinyl}(5-fluoro-3-pyridyl)methanol], the Emax at 10 µM is more than 75% in assay [1] (setting [3]) and less than 25% in assay [2] (setting [4]).

With `COc1ccc(C[C@H]2CC[C@H]([C@@H](O)c3cncc(F)c3)N2)cc1` [Compound 380, (S)-{(2R,5R)-5-[(p-methoxyphenyl)methyl]-2-pyrrolidinyl}(5-fluoro-3-pyridyl)methanol], the Emax at 10 µM in assay [1] (setting [3]) was more than 75%; in assay [2] (setting [4]), less than 25%.

Take `CC(C)(C)NC[C@H](O)c1cccc(F)c1F` [Compound 76, (R)-2-(tert-butylamino)-1-(2,3-difluorophenyl)-1-ethanol]: the results for the Emax at 10 µM in assay [1] (setting [5]) and in assay [2] (setting [6]) were more than 75% and 25 to 50%, respectively.

As to `CC(C)(C)NC[C@H](O)c1ncccc1Cl` [Compound 146, (S)-2-(tert-butylamino)-1-(3-chloro-2-pyridyl)-1-ethanol], the results for the Emax at 10 µM in assay [1] (setting [5]) and in assay [2] (setting [6]) were 25 to 50% and less than 25%, respectively.

As for `CC(=O)N(C)[C@H]1CC[C@H](CC(C)(C)NC[C@H](O)c2cncc(F)c2)CC1` [Compound 506], the Emax at 10 µM is more than 75% in assay [1] (setting [3]) and 25 to 50% in assay [2] (setting [4]).

With `CC(C)(C)NCC(O)c1ccc(O)cc1` (stereo not shown) [Compound 4, 2-(tert-butylamino)-1-(p-hydroxyphenyl)-1-ethanol], the Emax at 10 µM is more than 75% in assay [1] (setting [5]) and 25 to 50% in assay [2] (setting [6]).

With `CS(=O)(=O)N(Cc1ccccc1)[C@H]1CC[C@H](C[C@@H]2CC[C@H]([C@H](O)c3cccc(F)c3)N2)CC1` [Compound 502], the Emax at 10 µM in assay [1] (setting [3]) and in assay [2] (setting [4]) was less than 25% in each case.

Regarding `CCC[C@H]1CCC[C@@H]([C@@H](O)c2cccc(F)c2)N1` [Compound 119], the Emax at 10 µM was 25 to 50% in assay [1] (setting [5]) and less than 25% in assay [2] (setting [6]).

With `CC(C)(C[C@H]1CC[C@@H](NS(C)(=O)=O)CC1)NC[C@H](O)c1cccc(C#N)n1` [Compound 422, 6-[(S)-2-{1,1-dimethyl-2-[(1s,4R)-4-(mesylamino)cyclohexyl]ethylamino}-1-hydroxyethyl]-2-pyridinecarbonitrile], the Emax at 10 µM was 50 to 75% in assay [1] (setting [3]) and less than 25% in assay [2] (setting [4]).

Regarding `CC(C)(CC[C@H]1CC[C@@H](C(=O)O)CC1)NC[C@H](O)c1cncc(F)c1` [Compound 347, (1S,4s)-4-{3-[(R)-2-(5-fluoro-3-pyridyl)-2-hydroxyethylamino]-3-methylbutyl} cyclohexanecarboxylic acid], the Emax at 10 µM in assay [1] (setting [3]) is more than 75%; in assay [2] (setting [4]), less than 25%.

`O[C@H](c1cccc(F)c1)C12CCC(Cc3ccc(F)cc3)(CC1)N2` [Compound 413, (R)-(m-fluorophenyl){4-[(p-fluorophenyl)methyl]-7-azabicyclo[[2.2.1]]hept-1-yl}methanol]: the Emax at 10 µM in assay [1] (setting [3]) is more than 75%; in assay [2] (setting [4]), less than 25%.

On to `CCC[C@@H]1CCC[C@@H]([C@H](O)c2cccc(Cl)c2)N1` [Compound 115], for which the Emax at 10 µM in assay [1] (setting [5]) is more than 75%; in assay [2] (setting [6]), less than 25%.

Consider `CC(C)(C)NC[C@H](O)c1cncc(O)c1` [Compound 100, 5-[(R)-2-(tert-butylamino)-1-hydroxyethyl]-3-pyridinol], for which the Emax at 10 µM in assay [1] (setting [5]) was more than 75%; in assay [2] (setting [6]), less than 25%.

On to `O[C@@H](CNCCC[C@H]1CC[C@@H](OCc2ccccc2)CC1)c1cncc(F)c1` [Compound 275, (R)-1-(5-fluoro-3-pyridyl)-2-{3-[(1s,4R)-4-(benzyloxy)cyclohexyl]propylamino}-1-ethanol], for which the Emax at 10 µM in assay [1] (setting [3]) is 50 to 75%; in assay [2] (setting [4]), less than 25%.

Values taken from patent publication US20260216294A1, “BETA 2-ADRENERGIC RECEPTOR AGONISTS FOR TREATMENT OR PREVENTION OF MUSCLE WASTING” (ATROGI AB, priority 2023, published 2026).
